Experimental data: ChEMBL document CHEMBL5303573, “Mapping human microbiome drug metabolism by gut bacteria and their genes” (Nature, 2019)

Assays:
[1] = The drug is tested on Clostridium asparagiforme strain: DSM15981 for biotransformation. The drug concentrations were measured before and after a 12-h incubation by liquid-chromatography-coupled mass spectrometry (LC–MS); type: ADME; parameters: dose 2 uM, timepoint 0 vs 12 hours; settings: enterocloster asparagiformis, 2 µM
[2] = The drug is tested on Dorea formicigenerans strain: ATCC27755 for biotransformation. The drug concentrations were measured before and after a 12-h incubation by liquid-chromatography-coupled mass spectrometry (LC–MS); settings: 2 µM
[3] = The drug is tested on Escherichia coli strain: BW25113 for biotransformation. The drug concentrations were measured before and after a 12-h incubation by liquid-chromatography-coupled mass spectrometry (LC–MS); settings: 2 µM
[4] = The drug is tested on Bacteroides vulgatus strain: ATCC8482 for biotransformation. The drug concentrations were measured before and after a 12-h incubation by liquid-chromatography-coupled mass spectrometry (LC–MS); settings: phocaeicola vulgatus, 2 µM
[5] = roseburia intestinalis, 12 h, 2 µM
Description: The drug is tested on Roseburia intestinalis strain: L1-82 for biotransformation. The drug concentrations were measured before and after a 12-h incubation by liquid-chromatography-coupled mass spectrometry (LC–MS)

[6] = bacteroides eggerthii, 12 h, 2 µM
Description: The drug is tested on Bacteroides eggerthii strain: DSM20697 for biotransformation. The drug concentrations were measured before and after a 12-h incubation by liquid-chromatography-coupled mass spectrometry (LC–MS)

[7] = The drug is tested on Bifidobacterium breve strain: DSM20213 for biotransformation. The drug concentrations were measured before and after a 12-h incubation by liquid-chromatography-coupled mass spectrometry (LC–MS); settings: 2 µM
[8] = The drug is tested on Eubacterium ventriosum strain: ATCC27560 for biotransformation. The drug concentrations were measured before and after a 12-h incubation by liquid-chromatography-coupled mass spectrometry (LC–MS); type: ADME; parameters: dose 2 uM, timepoint 0 vs 12 hours; settings: 2 µM
[9] = segatella copri, 12 h, 2 µM
Description: The drug is tested on Prevotella copri strain: DSM18205 for biotransformation. The drug concentrations were measured before and after a 12-h incubation by liquid-chromatography-coupled mass spectrometry (LC–MS)

[10] = The drug is tested on Collinsella intestinalis strain: DSM13280 for biotransformation. The drug concentrations were measured before and after a 12-h incubation by liquid-chromatography-coupled mass spectrometry (LC–MS); settings: 2 µM
[11] = victivallis vadensis, 12 h, 2 µM
Description: The drug is tested on Victivallis vadensis strain: ATCC BAA-548 for biotransformation. The drug concentrations were measured before and after a 12-h incubation by liquid-chromatography-coupled mass spectrometry (LC–MS)

[12] = akkermansia muciniphila, 12 h, 2 µM
Description: The drug is tested on Akkermansia muciniphila strain: ATCC BAA-835 for biotransformation. The drug concentrations were measured before and after a 12-h incubation by liquid-chromatography-coupled mass spectrometry (LC–MS)

[13] = The drug is tested on Bacteroides sp. WH2 strain: WH2 for biotransformation. The drug concentrations were measured before and after a 12-h incubation by liquid-chromatography-coupled mass spectrometry (LC–MS); settings: bacteroides sp. wh2, 12 h, 2 µM
[14] = The drug is tested on Bacteroides cellulosilyticus strain: DSM14838 for biotransformation. The drug concentrations were measured before and after a 12-h incubation by liquid-chromatography-coupled mass spectrometry (LC–MS); settings: 2 µM
[15] = The drug is tested on Blautia hansenii strain: DSM20583 for biotransformation. The drug concentrations were measured before and after a 12-h incubation by liquid-chromatography-coupled mass spectrometry (LC–MS); settings: 2 µM
[16] = The drug is tested on Blautia luti strain: DSM14534 for biotransformation. The drug concentrations were measured before and after a 12-h incubation by liquid-chromatography-coupled mass spectrometry (LC–MS); type: ADME; parameters: dose 2 uM, timepoint 0 vs 12 hours; settings: 2 µM
[17] = bacteroides thetaiotaomicron, 12 h, 2 µM
Description: The drug is tested on Bacteroides thetaiotaomicron strain: 7330 for biotransformation. The drug concentrations were measured before and after a 12-h incubation by liquid-chromatography-coupled mass spectrometry (LC–MS)

[18] = bacteroides thetaiotaomicron, 12 h, 2 µM; remark: listed apart in the source
Description: The drug is tested on Bacteroides thetaiotaomicron strain: VPI-5482 for biotransformation. The drug concentrations were measured before and after a 12-h incubation by liquid-chromatography-coupled mass spectrometry (LC–MS)

[19] = The drug is tested on Bacteroides fragilis strain: HMW610 for biotransformation. The drug concentrations were measured before and after a 12-h incubation by liquid-chromatography-coupled mass spectrometry (LC–MS); settings: 2 µM
[20] = The drug is tested on Subdoligranulum variabile strain: DSM15176 for biotransformation. The drug concentrations were measured before and after a 12-h incubation by liquid-chromatography-coupled mass spectrometry (LC–MS); settings: 2 µM

With `CN1C[C@H](C(=O)N[C@]2(C)O[C@@]3(O)[C@@H]4CCCN4C(=O)[C@H](Cc4ccccc4)N3C2=O)C=C2c3cccc4[nH]cc(c34)C[C@H]21.CN1C[C@H](C(=O)N[C@]2(C)O[C@@]3(O)[C@@H]4CCCN4C(=O)[C@H](Cc4ccccc4)N3C2=O)C=C2c3cccc4[nH]cc(c34)C[C@H]21.O=C(O)C(O)C(O)C(=O)O` [ERGOTAMINE TARTRATE] the “Bacterial Biotransformation” value [1] was “Compound metabolized”, the “Bacterial Biotransformation” value [2] was “Compound NOT metabolized” and the “Bacterial Biotransformation” value [3] was “Compound metabolized”. The “Bacterial Biotransformation” value [4] was “Compound metabolized”, the “Bacterial Biotransformation” value [5] was “Compound NOT metabolized” and the “Bacterial Biotransformation” value [6] was “Compound metabolized”. The “Bacterial Biotransformation” value [7] was “Compound metabolized”, the “Bacterial Biotransformation” value [8] was “Compound NOT metabolized” and the “Bacterial Biotransformation” value [9] was “Compound metabolized”. For the same compound, the “Bacterial Biotransformation” value [10] was “Compound NOT metabolized”, the “Bacterial Biotransformation” value [11] was “Compound metabolized” and the “Bacterial Biotransformation” value [12] was “Compound metabolized”. For the same compound, the “Bacterial Biotransformation” value [13] was “Compound metabolized”, the “Bacterial Biotransformation” value [14] was “Compound metabolized” and the “Bacterial Biotransformation” value [15] was “Compound metabolized”. The “Bacterial Biotransformation” value [16] was “Compound metabolized”, the “Bacterial Biotransformation” value [17] was “Compound metabolized” and the “Bacterial Biotransformation” value [18] was “Compound metabolized”.

With `CN1C(=O)CCS(=O)(=O)C1c1ccc(Cl)cc1` (stereo not given) [CHLORMEZANONE] the “Bacterial Biotransformation” value [1] was “Compound metabolized”, the “Bacterial Biotransformation” value [3] was “Compound NOT metabolized” and the “Bacterial Biotransformation” value [4] was “Compound metabolized”. The “Bacterial Biotransformation” value [6] was “Compound NOT metabolized”, the “Bacterial Biotransformation” value [7] was “Compound NOT metabolized” and the “Bacterial Biotransformation” value [8] was “Compound NOT metabolized”. The “Bacterial Biotransformation” value [9] was “Compound NOT metabolized”, the “Bacterial Biotransformation” value [10] was “Compound NOT metabolized” and the “Bacterial Biotransformation” value [11] was “Compound NOT metabolized”. For the same compound, the “Bacterial Biotransformation” value [12] was “Compound NOT metabolized”, the “Bacterial Biotransformation” value [14] was “Compound NOT metabolized” and the “Bacterial Biotransformation” value [15] was “Compound metabolized”. For the same compound, the “Bacterial Biotransformation” value [19] was “Compound NOT metabolized” and the “Bacterial Biotransformation” value [18] was “Compound NOT metabolized”.

For `COc1ccc2c(c1OC)C(=O)O[C@@H]2[C@H]1c2c(cc3c(c2OC)OCO3)CCN1C` [NOSCAPINE], the “Bacterial Biotransformation” value [1] was “Compound metabolized”, the “Bacterial Biotransformation” value [2] was “Compound metabolized” and the “Bacterial Biotransformation” value [3] was “Compound NOT metabolized”. For the same compound, the “Bacterial Biotransformation” value [4] was “Compound metabolized”, the “Bacterial Biotransformation” value [5] was “Compound metabolized” and the “Bacterial Biotransformation” value [6] was “Compound NOT metabolized”. For the same compound, the “Bacterial Biotransformation” value [7] was “Compound metabolized”, the “Bacterial Biotransformation” value [8] was “Compound metabolized” and the “Bacterial Biotransformation” value [9] was “Compound metabolized”. The “Bacterial Biotransformation” value [10] was “Compound metabolized”, the “Bacterial Biotransformation” value [11] was “Compound NOT metabolized” and the “Bacterial Biotransformation” value [12] was “Compound metabolized”. The “Bacterial Biotransformation” value [13] was “Compound NOT metabolized”, the “Bacterial Biotransformation” value [14] was “Compound metabolized” and the “Bacterial Biotransformation” value [16] was “Compound metabolized”. For the same compound, the “Bacterial Biotransformation” value [17] was “Compound metabolized”, the “Bacterial Biotransformation” value [19] was “Compound NOT metabolized” and the “Bacterial Biotransformation” value [18] was “Compound metabolized”.

With `CN1CCN(CC/C=C2/c3ccccc3Sc3ccc(S(=O)(=O)N(C)C)cc32)CC1` [THIOTHIXENE] the “Bacterial Biotransformation” value [2] was “Compound NOT metabolized”, the “Bacterial Biotransformation” value [3] was “Compound NOT metabolized” and the “Bacterial Biotransformation” value [4] was “Compound metabolized”. The “Bacterial Biotransformation” value [5] was “Compound metabolized”, the “Bacterial Biotransformation” value [6] was “Compound metabolized” and the “Bacterial Biotransformation” value [7] was “Compound metabolized”. The “Bacterial Biotransformation” value [20] was “Compound NOT metabolized”, the “Bacterial Biotransformation” value [8] was “Compound metabolized” and the “Bacterial Biotransformation” value [9] was “Compound metabolized”. The “Bacterial Biotransformation” value [10] was “Compound NOT metabolized”, the “Bacterial Biotransformation” value [11] was “Compound NOT metabolized” and the “Bacterial Biotransformation” value [12] was “Compound NOT metabolized”. The “Bacterial Biotransformation” value [13] was “Compound NOT metabolized”, the “Bacterial Biotransformation” value [14] was “Compound metabolized” and the “Bacterial Biotransformation” value [15] was “Compound metabolized”. The “Bacterial Biotransformation” value [16] was “Compound NOT metabolized”, the “Bacterial Biotransformation” value [17] was “Compound NOT metabolized” and the “Bacterial Biotransformation” value [19] was “Compound NOT metabolized”. The “Bacterial Biotransformation” value [18] was “Compound NOT metabolized”.

With `CCOc1cc(CC(=O)N[C@@H](CC(C)C)c2ccccc2N2CCCCC2)ccc1C(=O)O` [REPAGLINIDE] the “Bacterial Biotransformation” value [1] was “Compound metabolized”, the “Bacterial Biotransformation” value [2] was “Compound NOT metabolized” and the “Bacterial Biotransformation” value [4] was “Compound NOT metabolized”. For the same compound, the “Bacterial Biotransformation” value [5] was “Compound NOT metabolized”, the “Bacterial Biotransformation” value [6] was “Compound metabolized” and the “Bacterial Biotransformation” value [7] was “Compound metabolized”. For the same compound, the “Bacterial Biotransformation” value [8] was “Compound NOT metabolized”, the “Bacterial Biotransformation” value [9] was “Compound NOT metabolized” and the “Bacterial Biotransformation” value [10] was “Compound NOT metabolized”. For the same compound, the “Bacterial Biotransformation” value [11] was “Compound NOT metabolized”, the “Bacterial Biotransformation” value [12] was “Compound NOT metabolized” and the “Bacterial Biotransformation” value [13] was “Compound NOT metabolized”. The “Bacterial Biotransformation” value [14] was “Compound metabolized”, the “Bacterial Biotransformation” value [15] was “Compound NOT metabolized” and the “Bacterial Biotransformation” value [16] was “Compound NOT metabolized”. For the same compound, the “Bacterial Biotransformation” value [17] was “Compound metabolized” and the “Bacterial Biotransformation” value [19] was “Compound metabolized”.

For `NS(=O)(=O)c1cc2c(cc1Cl)N=C(CSCc1ccccc1)NS2(=O)=O` [BENZTHIAZIDE], the “Bacterial Biotransformation” value [1] was “Compound NOT metabolized”, the “Bacterial Biotransformation” value [2] was “Compound NOT metabolized” and the “Bacterial Biotransformation” value [5] was “Compound NOT metabolized”. For the same compound, the “Bacterial Biotransformation” value [6] was “Compound NOT metabolized”, the “Bacterial Biotransformation” value [7] was “Compound NOT metabolized” and the “Bacterial Biotransformation” value [9] was “Compound NOT metabolized”. The “Bacterial Biotransformation” value [10] was “Compound NOT metabolized”, the “Bacterial Biotransformation” value [11] was “Compound NOT metabolized” and the “Bacterial Biotransformation” value [12] was “Compound NOT metabolized”. The “Bacterial Biotransformation” value [13] was “Compound NOT metabolized”, the “Bacterial Biotransformation” value [14] was “Compound NOT metabolized” and the “Bacterial Biotransformation” value [15] was “Compound metabolized”. For the same compound, the “Bacterial Biotransformation” value [16] was “Compound NOT metabolized”, the “Bacterial Biotransformation” value [17] was “Compound NOT metabolized” and the “Bacterial Biotransformation” value [19] was “Compound NOT metabolized”. For the same compound, the “Bacterial Biotransformation” value [18] was “Compound NOT metabolized”.

With `CN1CCN(C2=Nc3cc(Cl)ccc3Nc3ccccc32)CC1` [CLOZAPINE] the “Bacterial Biotransformation” value [2] was “Compound NOT metabolized”, the “Bacterial Biotransformation” value [3] was “Compound NOT metabolized” and the “Bacterial Biotransformation” value [4] was “Compound NOT metabolized”. For the same compound, the “Bacterial Biotransformation” value [6] was “Compound NOT metabolized”, the “Bacterial Biotransformation” value [7] was “Compound NOT metabolized” and the “Bacterial Biotransformation” value [20] was “Compound NOT metabolized”. For the same compound, the “Bacterial Biotransformation” value [8] was “Compound NOT metabolized”, the “Bacterial Biotransformation” value [9] was “Compound NOT metabolized” and the “Bacterial Biotransformation” value [10] was “Compound NOT metabolized”. The “Bacterial Biotransformation” value [11] was “Compound NOT metabolized”, the “Bacterial Biotransformation” value [12] was “Compound NOT metabolized” and the “Bacterial Biotransformation” value [13] was “Compound NOT metabolized”. For the same compound, the “Bacterial Biotransformation” value [14] was “Compound NOT metabolized”, the “Bacterial Biotransformation” value [15] was “Compound NOT metabolized” and the “Bacterial Biotransformation” value [16] was “Compound NOT metabolized”. For the same compound, the “Bacterial Biotransformation” value [17] was “Compound NOT metabolized”, the “Bacterial Biotransformation” value [19] was “Compound NOT metabolized” and the “Bacterial Biotransformation” value [18] was “Compound NOT metabolized”.
